Laboratory results as given in PubChem BioAssay (NCI).
Where “and” joins values, the source holds several entries; their conditions need not be identical. Equal entries are not always repeated.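 Cultured in 96-well plates, cells were exposed to test compound for 48 hours across five concentrations. GI50 = concentration required for 50% inhibition of growth. TGI: concentration producing complete growth inhibition.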

Assays:
Test in all cases: NCI tumour cell line growth inhibition, 48 h
[1] = tested on: DMS 273 small cell lung
[2] = tested on: MCF7 breast
[3] = tested on: SNB-78 CNS
[4] = tested on: T-47D breast
[5] = tested on: DU-145 prostate
[6] = tested on: MDA-MB-435
[7] = tested on: LXFL 529 NSCLC
[8] = tested on: MDA-MB-231 breast
[9] = tested on: XF 498 CNS
[10] = tested on: DMS 114 small cell lung

Compound	TGI [1] [µM]	GI50 [2]	TGI [2]	TGI [3] [µM]	TGI [4]	TGI [5] [µM]	GI50 [6]	TGI [6]	TGI [7] [µM]	GI50 [8]	TGI [8]	TGI [9] [µM]	TGI [10] [µM]
CN(C)CC1CCCC(CN(C)C)C1=O (stereo not drawn)	26.8	0.575 µM and 3.45 µM	6 µM and > 41.7 µM	10.3	4.23 µM and 3.38 µM	29.4	19.6 µM and 8.54 µM	39.1 µM and 23.8 µM	0.998	3.9 µM and 16 µM	13 µM and 31.2 µM	3.69	3.87
Fc1cccc(C=NC23CC4CC(CC(C4)C2)C3)c1	> 100			> 100					> 100			> 100	> 100
CCOC(=O)C12CN(C34CC5CC(CC(C5)C3)C4)CC(C(=O)OCC)(C1=O)C(c1ccccc1)OC2c1ccccc1 (stereo not drawn)	> 100			> 100					> 100			> 100	> 100
